{
  "source": "paper PMC3515705",
  "about": "(Nature structural & molecular biology, 2012)",
  "molecular_target": "scRio2 (Saccharomyces cerevisiae, UniProt P40160)",
  "sequence (P40160 whole entry)": "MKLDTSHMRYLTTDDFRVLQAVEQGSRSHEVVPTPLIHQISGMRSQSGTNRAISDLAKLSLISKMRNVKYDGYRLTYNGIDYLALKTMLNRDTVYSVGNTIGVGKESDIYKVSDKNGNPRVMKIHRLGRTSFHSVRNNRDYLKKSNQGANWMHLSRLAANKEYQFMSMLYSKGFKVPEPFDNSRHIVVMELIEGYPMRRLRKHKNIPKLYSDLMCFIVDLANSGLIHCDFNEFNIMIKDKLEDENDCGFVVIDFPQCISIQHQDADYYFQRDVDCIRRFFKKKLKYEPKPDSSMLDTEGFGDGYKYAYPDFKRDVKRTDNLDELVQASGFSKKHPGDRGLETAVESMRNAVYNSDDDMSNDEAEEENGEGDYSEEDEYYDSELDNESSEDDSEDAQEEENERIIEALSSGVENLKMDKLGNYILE",
  "data": [
    {"smiles": "Nc1ncnc2c1ncn2[C@@H]1O[C@H](COP(=O)(O)OP(=O)(O)OP(=O)(O)O)[C@@H](O)[C@H]1O", "note": "[ATP]", "values": [
      {"measurement": "autophosphorylation detected by mass spectrometry", "value": "phospho-serine residues after incubation of purified recombinant scRio2 with ATP"}
    ]}
  ]
}
